Literature values as cited in patent US20230033195A1, “METHODS AND COMPOSITIONS FOR IMPROVING COGNITIVE FUNCTION” (THE JOHNS HOPKINS UNIVERSITY, priority 2011, published 2023).
Read-outs that look alike come from different tables or passages of the source.

Conditions: cited from earlier work

CC[C@@H](C(N)=O)N1CCCC1=O [levetiracetam, (2S)-2-(2-oxopyrrolidin-1-yl) butanamide]
absorption (after oral administration): rapidly and almost completely absorbed | plasma half-life (expected in elderly due to decreased renal function): 9 to 10 h | time of peak plasma concentrations (following oral administration): about 1 hour | plasma half-life (in vivo): approximately 7 ± 1 hour | time to steady state (multiple twice-daily dosing): 2 days | effect of food on bioavailability (oral administration): not affected by food
